In patent US20250313563A1, “GLYCOGEN SYNTHASE KINASE 3 INHIBITORS AND USES THEREOF” (The Broad Institute, Inc., priority 2022, published 2025) one finds IC50 data, which are given here for 34 compounds.

Molecules are shown by their SMILES. Where two headings read alike, the source gives them in different places.

Assay [1] concerns the target GSK3α (GST-full length GSK3α) (Homo sapiens (Human), UniProt P49840). Kind of assay: GSK3α TR-FRET kinase assay. In kind it is biochemical. A digest of the protocol:
(§1)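 In this time-resolved FRET format, kinase reactions contained 200 nM biotinylated, S645-phosphorylated glycogen synthase 631-650 peptide and either isoform-specific ATP (2 μM GSK3b, 4 μM GSK3α) or 1 mM ATP. They were quenched with EDTA after 100 min at ambient temperature. Inhibition curves gave IC50 values.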
A general note: Time-resolved FRET reads energy transfer from a long-lived donor to a nearby acceptor.

The target of assay [2] is GSK3b (GST-full length GSK3b) (Homo sapiens (Human), UniProt P49841). Kind of assay: GSK3b TR-FRET kinase assay. In kind it is biochemical. A digest of the protocol: as §1
[3] abbreviates: 1 nM GSK3α, 4 μM ATP, 30 minute preincubation, Table 16, read-out: GSK3-A TR-FRET BIOCHEMICAL (TR-FRET), IC50.
The mark [4] stands for this setting: 1 nM GSK3b, 2 μM ATP, 30 minute preincubation, Table 16, read-out: GSK3-B TR-FRET BIOCHEMICAL (TR-FRET), IC50.
Where [5] appears, read: 1 nM GSK3α, 4 μM ATP, 30 minute preincubation, Table 16, read-out: GSK3-A TR-FRET BIOCHEMICAL (TR-FRET).
The mark [6] stands for this setting: 1 nM GSK3b, 2 μM ATP, 30 minute preincubation, Table 16, read-out: GSK3-B TR-FRET BIOCHEMICAL (TR-FRET).
[7] abbreviates: 1 nM GSK3α, 4 μM ATP, 30 minute preincubation, geometric mean, read-out: GSK3-A TR-FRET BIOCHEMICAL (TR-FRET), GMean, IC50.
Where [8] appears, read: 1 nM GSK3b, 2 μM ATP, 30 minute preincubation, geometric mean, read-out: GSK3-B TR-FRET BIOCHEMICAL (TR-FRET), GMean, IC50.
The mark [9] stands for this setting: read-out: GSK3-A (TR-FRET 1 mM ATP), GMean, IC50, 1 mM ATP, geometric mean.
The mark [10] stands for this setting: read-out: GSK3-B (TR-FRET 1 mM ATP), GMean, IC50, 1 mM ATP, geometric mean.
[11] abbreviates: 1 nM GSK3α, 4 μM ATP, 30 minute preincubation, read-out: GSK3-A TR-FRET BIOCHEMICAL (TR-FRET), IC50.
[12] abbreviates: 1 nM GSK3b, 2 μM ATP, 30 minute preincubation, read-out: GSK3-B TR-FRET BIOCHEMICAL (TR-FRET), IC50.

Chain of GSK3b (GST-full length GSK3b) (P49841 whole entry): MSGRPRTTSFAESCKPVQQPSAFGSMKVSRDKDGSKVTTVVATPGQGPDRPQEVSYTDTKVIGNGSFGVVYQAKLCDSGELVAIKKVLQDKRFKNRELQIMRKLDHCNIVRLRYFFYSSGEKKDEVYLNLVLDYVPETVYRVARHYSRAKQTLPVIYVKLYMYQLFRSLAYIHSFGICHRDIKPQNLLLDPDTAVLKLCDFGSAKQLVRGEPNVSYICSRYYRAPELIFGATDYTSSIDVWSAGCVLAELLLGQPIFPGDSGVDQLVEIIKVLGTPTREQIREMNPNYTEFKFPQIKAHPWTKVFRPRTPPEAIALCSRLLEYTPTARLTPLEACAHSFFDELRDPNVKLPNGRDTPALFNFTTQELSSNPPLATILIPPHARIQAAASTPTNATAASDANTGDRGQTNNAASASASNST
Chain of GSK3α (GST-full length GSK3α) (P49840 whole entry, canonical isoform): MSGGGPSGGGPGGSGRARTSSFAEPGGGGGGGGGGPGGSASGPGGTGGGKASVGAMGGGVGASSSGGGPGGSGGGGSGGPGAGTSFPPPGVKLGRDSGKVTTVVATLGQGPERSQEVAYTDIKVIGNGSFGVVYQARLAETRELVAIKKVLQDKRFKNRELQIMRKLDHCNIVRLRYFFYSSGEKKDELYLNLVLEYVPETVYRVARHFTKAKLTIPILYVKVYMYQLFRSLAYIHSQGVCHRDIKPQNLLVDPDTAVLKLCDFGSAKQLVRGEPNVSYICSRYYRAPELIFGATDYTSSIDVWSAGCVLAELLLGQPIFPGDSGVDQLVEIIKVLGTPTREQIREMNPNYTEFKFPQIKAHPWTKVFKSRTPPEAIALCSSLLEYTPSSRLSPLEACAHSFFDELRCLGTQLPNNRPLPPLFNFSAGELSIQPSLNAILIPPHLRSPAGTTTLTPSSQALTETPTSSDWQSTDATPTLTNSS

With `CCC1(c2cccc(C3CCOC(C)(C)C3)c2)C2=C(CC(C)(C)CC2=O)Nc2n[nH]cc21` (centres unmarked) [Compound 912088], the IC50 in assay [1] (setting [3]) was 100 to 1000 nM; in assay [2] (setting [4]), greater than 5000 nM.
As for `CC1(C)CC(=O)C2=C(C1)Nc1n[nH]cc1[C@@]21CO[C@@H](c2ccccc2)C1` [Compound 946073], the IC50 in assay [1] (setting [5]) is no more than 100 nM; in assay [2] (setting [6]), 100 to 1000 nM.
For the compound `CCC1(c2cccc(N(C)c3ccc(OC)nc3)c2)C2=C(CC(C)(C)CC2=O)Nc2n[nH]cc21` (centres unmarked) [Compound 913252], the IC50 in assay [1] (setting [3]) and in assay [2] (setting [4]) was 100 to 1000 nM in each case.
Turning to `CCC1(c2cccc(-c3ccnc(C)c3F)c2)C2=C(CC(C)(C)NC2=O)Nc2n[nH]c(C)c21` (centres unmarked) [Compound 947402], the IC50 was no more than 100 nM in assay [1] (setting [7]) and 100 to 1000 nM in assay [2] (setting [8]).
On to `CCC1(c2cccc(C(C)C)c2)C2=C(CC(C)(C)NC2=O)Nc2n[nH]cc21` (centres unmarked) [Compound 949761], for which the IC50 is no more than 100 nM in assay [1] (setting [3]), 100 to 1000 nM in assay [1] (setting [9]), 100 to 1000 nM in assay [2] (setting [4]) and greater than 5000 nM in assay [2] (setting [10]).
Consider `Cc1cc(C)cc(C(=O)N2CC3(C2)CC2(CO3)C3=C(CC(C)(C)CC3=O)Nc3n[nH]cc32)c1` (centres unmarked) [Compound 947296], for which the IC50 in assay [1] (setting [11]) and in assay [2] (setting [12]) was no more than 100 nM each time.
For the compound `Cc1ccccc1C(=O)N1CC2(C1)CC1(CO2)C2=C(CC(C)(C)CC2=O)Nc2n[nH]cc21` (centres unmarked) [Compound 947287], the IC50 in assay [1] (setting [11]) is no more than 100 nM; in assay [2] (setting [12]), 100 to 1000 nM.
For the compound `CCC1(c2cccc(-c3cn(C)nc3C)c2)C2=C(Nc3n[nH]cc31)C(F)C(C)(C)CC2=O` (single isomer, unassigned) [Compound 947652, 4-(3-(1,3-dimethyl-1H-pyrazol-4-yl)phenyl)-4-ethyl-8-fluoro-7,7-dimethyl-2,4,6,7,8,9-hexahydro-5H-pyrazolo[3,4-b]quinolin-5-one], the IC50 in assay [1] (setting [5]) was no more than 100 nM; in assay [1] (GSK3-A (TR-FRET 1 mM ATP), GMean, IC50, 1 mM ATP, geometric mean), 100 to 1000 nM; in assay [2] (setting [6]), 100 to 1000 nM; in assay [2] (GSK3-B (TR-FRET 1 mM ATP), GMean, IC50, 1 mM ATP, geometric mean), greater than 5000 nM.
On to `CC[C@@]1(c2ccccc2)C2=C(C[C@]3(CCN(C)C3=O)CC2=O)Nc2n[nH]cc21` [Compound 949759], for which the IC50 in assay [1] (setting [5]) and in assay [2] (setting [6]) was greater than 5000 nM each time.
In the case of `CC[C@@]1(c2cccc(C3CCC3)c2)C2=C(CC(C)(C)CC2=O)Nc2n[nH]cc21` [Compound 949521], the IC50 in assay [1] (setting [3]) is no more than 100 nM; in assay [1] (setting [9]), 100 to 1000 nM; in assay [2] (setting [4]) it was no more than 100 nM; in assay [2] (setting [10]) it was 1000 to 5000 nM.
As for `CCC1(c2cccc(S(=O)(=O)C3CC3)c2)C2=C(CC(C)(C)NC2=O)Nc2n[nH]cc21` (centres unmarked) [Compound 946004], the IC50 in assay [1] (setting [11]) is 100 to 1000 nM; in assay [2] (setting [12]) it was greater than 5000 nM.
On to `CC[C@]1(c2cccc(-c3ccncc3C(F)(F)F)c2)C2=C(CC(C)(C)CC2=O)Nc2n[nH]cc21` [Compound 943913], for which the IC50 is no more than 100 nM in assay [1] (setting [5]), no more than 100 nM in assay [1] (setting [9]), no more than 100 nM in assay [2] (setting [6]) and 100 to 1000 nM in assay [2] (setting [10]).
On to `CC[C@]1(c2ccccc2)C2=C(C[C@H](C)CC2=O)Nc2n[nH]cc21` [Compound 789013], for which the IC50 in assay [1] (setting [7]) was 100 to 1000 nM; in assay [2] (setting [8]), greater than 5000 nM.
For the compound `CC1(C)CC(=O)C2=C(C1)Nc1n[nH]cc1C21CCOC1` (centres unmarked) [Compound 826713], the IC50 in assay [1] (setting [5]) and in assay [2] (setting [6]) was 100 to 1000 nM each time.
For `CC1(C)CC(=O)C2=C(C1)Nc1n[nH]cc1C21CCN(S(=O)(=O)c2ccc(C(F)F)cc2)CC1` [Compound 947248], the IC50 in assay [1] (setting [5]) and in assay [2] (setting [6]) was no more than 100 nM in each case.
For the compound `CCC1(c2cccc(-c3ccnn3C)c2)C2=C(CC(C)(C)CC2=O)Nc2n[nH]c(C)c21` (centres unmarked) [Compound 913023], the IC50 is no more than 100 nM in assay [1] (setting [9]) and 100 to 1000 nM in assay [2] (setting [10]).
In the case of `CC[C@]1(c2cccc(C(F)(F)F)c2)C2=C(Nc3n[nH]cc31)[C@H](C)CNC2=O` [Compound 945385], the IC50 in assay [1] (setting [11]) and in assay [2] (setting [12]) was greater than 5000 nM each time.
Regarding `CC1(C)CC(=O)C2=C(C1)Nc1n[nH]cc1C21CCSC1` (centres unmarked) [Compound 883973], the results for the IC50 in assay [1] (setting [5]) and in assay [2] (setting [6]) were no more than 100 nM and 100 to 1000 nM, respectively.
For `CC[C@@]1(c2cccc(-c3ccnn3C)c2)C2=C(CC3(CCCC3)NC2=O)Nc2n[nH]cc21` [Compound 948019], the IC50 in assay [1] (setting [7]) was 1000 to 5000 nM; in assay [2] (setting [8]), greater than 5000 nM.
On to `CC1(C)CC2=C(C(=O)N1)C1(CCN(S(=O)(=O)c3ccc(F)cc3)CC1)c1c[nH]nc1N2` [Compound 943963], for which the IC50 in assay [1] (setting [11]) and in assay [2] (setting [12]) was no more than 100 nM each time.
For `CC(C)(C)Cc1[nH]nc2c1C1(CN(C(=O)OCc3ccccc3)C1)C1=C(CC(C)(C)CC1=O)N2` [Compound 90330], the IC50 in assay [1] (setting [9]) and in assay [2] (setting [10]) was greater than 5000 nM in each case.
As for `CCC1(c2cccc(S(=O)(=O)C3COC3)c2)C2=C(CC(C)(C)CC2=O)Nc2n[nH]cc21` (centres unmarked) [Compound 946003], the IC50 in assay [1] (setting [5]) is 100 to 1000 nM; in assay [2] (setting [6]), greater than 5000 nM.
Take `CC1(C)CC(=O)C2=C(C1)Nc1n[nH]cc1C21COC2(CN(C(=O)c3ccc(F)cc3)C2)C1` (centres unmarked) [Compound 947292]: the IC50 in assay [1] (setting [11]) and in assay [2] (setting [12]) was no more than 100 nM each time.
For the compound `CCC1(c2cccc(-c3cnn(C)c3)c2)C2=C(CC(C)(C)CC2=O)Nc2n[nH]cc21` (centres unmarked) [Compound 819576], the results for the IC50 in assay [1] (setting [7]) and in assay [2] (setting [8]) were 100 to 1000 nM and 1000 to 5000 nM, respectively.
As for `CCC1(c2cccc(S(=O)(=O)CCOC)c2)C2=C(CC(C)(C)CC2=O)Nc2n[nH]cc21` (centres unmarked) [Compound 918271], the IC50 in assay [1] (setting [3]) and in assay [2] (setting [4]) was no more than 100 nM each time.
For `CCC1(c2cccc(N(C)c3nccc(C)n3)c2)C2=C(CC(C)(C)CC2=O)Nc2n[nH]cc21` (centres unmarked) [Compound 942642], the IC50 in assay [1] (setting [5]) is no more than 100 nM; in assay [1] (setting [9]), no more than 100 nM; in assay [2] (setting [6]), no more than 100 nM; in assay [2] (setting [10]), 1000 to 5000 nM.
Turning to `CC[C@@]1(c2cccc(-c3ccnc4c(F)cccc34)c2)C2=C(CC(C)(C)NC2=O)Nc2n[nH]cc21` [Compound 948813], the IC50 in assay [1] (setting [7]) is 1000 to 5000 nM; in assay [2] (setting [8]), greater than 5000 nM.
As for `CC1(C)CC(=O)C2=C(C1)Nc1n[nH]cc1C21COC2(CN(C(=O)C(F)(F)F)C2)C1` (centres unmarked) [Compound 947280], the IC50 in assay [1] (setting [11]) and in assay [2] (setting [12]) was no more than 100 nM each time.
Regarding `CC1(C)CC(=O)C2=C(C1)Nc1n[nH]cc1C21CCCN(S(=O)(=O)c2ccccc2)CC1` (centres unmarked) [Compound 889578], the IC50 in assay [1] (setting [5]) and in assay [2] (setting [6]) was no more than 100 nM throughout.
For `CCC1(c2cccc(-c3cnn(C)c3)c2)C2=C(Nc3n[nH]cc31)C(F)C(C)(C)CC2=O` (centres unmarked) [Compound 957510], the IC50 was 1000 to 5000 nM in assay [1] (setting [5]) and greater than 5000 nM in assay [2] (setting [6]).
With `CC[C@@]1(c2cccc(-c3ccnc4ccc(C)cc34)c2)C2=C(CC(C)(C)NC2=O)Nc2n[nH]cc21` [Compound 948658], the IC50 in assay [1] (setting [7]) and in assay [2] (setting [8]) was greater than 5000 nM throughout.
Turning to `CCC1(c2cccc(-c3ccnc(C)c3)c2)C2=C(CC3(CCOC3)NC2=O)Nc2n[nH]cc21` (centres unmarked) [Compound 948148], the results for the IC50 in assay [1] (setting [7]) and in assay [2] (setting [8]) were 1000 to 5000 nM and greater than 5000 nM, respectively.
Take `CCC1(c2cccc(Oc3ncccn3)c2)C2=C(CC(C)(C)CC2=O)Nc2n[nH]cc21` (centres unmarked) [Compound 947808]: the IC50 was no more than 100 nM in assay [1] (setting [5]), no more than 100 nM in assay [1] (setting [9]), no more than 100 nM in assay [2] (setting [6]) and 100 to 1000 nM in assay [2] (setting [10]).
For the compound `CCC1(c2cccc(Cl)c2)C2=C(CC(C)(C)CC2=O)Nc2n[nH]c(Br)c21` (centres unmarked) [Compound 789564], the IC50 in assay [1] (setting [7]) and in assay [2] (setting [8]) was no more than 100 nM in each case.
